In patent publication US10280146B2, “Pyrimidone compounds used as Lp-PLA2 inhibitors and pharmaceutical compositions thereof” (Shanghai Institute of Materia Medica, Chinese Academy of …, priority 2014, dated 2019):

What was measured:
[1] = test system: Lp-PLA2 (rat serum as the source of enzyme); assay: In vitro inhibitory activity on Lp-PLA2, rat serum as the source of enzyme (2-thio-PAF/DTNB); type: biochemical; parameters: key: “—” indicates no inhibitory activity
Description: (§1) 0.1M Tris-HCl, 1 mM EGTA, PH 7.2
(§2) Anhydrous ethanol was used as solvent to make a 25 mg/ml mother liquor. The solution was aliquoted, stored at −80° C. and diluted 900 times before use (about 50 μM of concentration)
(§3) 3) DTNB (5,5′-dithio-bis-(2-nitrobenzoic acid), Sigma, Lot D8130)
(§4) The solution was prepared just before use.
(§5) 4) Compound was dissolved in DMSO to a suitable concentration.
(§6) Lp-PLA2 activity was determined by using 2-thio-PAF as substrate. The thiol group produced upon the hydrolysis of 2-thio-PAF can react with DTNB to generate a yellow substance. The optical density at 414 nm can be detected to reflect Lp-PLA2 activity.
1.3 Determination of the Inhibitory Activity of the Compounds on Lp-PLA2 (Rat Serum as the Source of Enzyme (In Vitro)
1) The corresponding reagents were added according to Table 5 and mixed uniformly by shaking.
(§7) 2) 10 μL of DTNB was added to each well.
(§8) 3) 150 μL of 2-thio-PAF was added to each well and shaken for 15 s on a microplate reader to mix the liquid in the well uniformly.

[2] = target: T1, Lp-PLA2 (human recombinant enzyme as the source of enzyme) (Homo sapiens, UniProt Q13093); assay: In vitro inhibitory activity on Lp-PLA2, human recombinant enzyme (2-thio-PAF/DTNB); type: biochemical; conditions: read-out: inhibitory ratio, % on Lp-PLA2 (human recombinant enzyme as the source of enzyme); for inhibition at 0.01 µM: 10 nM compound; for inhibition at 0.1 µM: 100 nM compound
T1 sequence (Q13093 22-441): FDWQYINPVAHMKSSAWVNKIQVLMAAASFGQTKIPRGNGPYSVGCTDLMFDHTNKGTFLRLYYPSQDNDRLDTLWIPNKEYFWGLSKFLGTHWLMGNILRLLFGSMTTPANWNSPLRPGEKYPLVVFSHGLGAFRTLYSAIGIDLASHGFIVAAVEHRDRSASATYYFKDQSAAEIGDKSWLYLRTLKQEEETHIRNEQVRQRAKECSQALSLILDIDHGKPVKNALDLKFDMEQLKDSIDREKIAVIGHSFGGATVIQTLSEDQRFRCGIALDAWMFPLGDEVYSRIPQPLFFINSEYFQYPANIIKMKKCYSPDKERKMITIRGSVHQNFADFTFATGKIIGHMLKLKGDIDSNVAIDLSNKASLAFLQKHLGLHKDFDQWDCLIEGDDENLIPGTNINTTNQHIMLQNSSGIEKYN
Description: as §1, §2, §3, §4, §5, §6
1.2 Determination of the Inhibitory Activity of the Compounds on Lp-PLA2 (Human Recombinant Enzyme as the Source of Enzyme) (In Vitro)
1) The corresponding reagents were added according to Table 3 and mixed uniformly by shaking.
as §7, §8

[3] = target: T2, Lp-PLA2 (rabbit serum as the source of enzyme) (Oryctolagus cuniculus, UniProt G1SE06); assay: In vitro inhibitory activity on Lp-PLA2, rabbit serum as the source of enzyme (2-thio-PAF/DTNB); type: biochemical; conditions: read-out: Inhibitory ratio, % on Lp-PLA2 (rabbit serum as the source of enzyme); for inhibition at 0.01 µM: 10 nM compound, — = no inhibitory activity; for inhibition at 0.1 µM: 100 nM compound; for inhibition at 1 µM: 1 μM compound
T2 construct: Rabbit Serum as the Source of Enzyme; from tissue; host or cells: rabbit serum
T2 sequence (G1SE06 22-423): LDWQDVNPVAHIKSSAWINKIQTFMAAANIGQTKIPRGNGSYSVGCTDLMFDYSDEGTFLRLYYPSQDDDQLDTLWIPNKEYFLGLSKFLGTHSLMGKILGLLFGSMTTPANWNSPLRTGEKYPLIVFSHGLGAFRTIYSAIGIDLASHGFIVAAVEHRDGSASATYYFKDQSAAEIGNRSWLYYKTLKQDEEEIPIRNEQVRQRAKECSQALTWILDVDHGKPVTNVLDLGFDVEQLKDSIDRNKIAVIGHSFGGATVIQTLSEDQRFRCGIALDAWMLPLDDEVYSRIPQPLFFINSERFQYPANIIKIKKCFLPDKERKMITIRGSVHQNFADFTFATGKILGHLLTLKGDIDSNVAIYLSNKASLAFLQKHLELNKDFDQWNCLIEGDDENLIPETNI
Description: as §1, §2, §3, §4, §5, §6
1.1 Determination of the Inhibitory Activity of the Compounds on Lp-PLA2 (Rabbit Serum as the Source of Enzyme) (In Vitro)
1) The corresponding reagents were added according to Table 1 and mixed uniformly by shaking.
as §7, §8

[4] = test system: STZ-induced diabetic rats; assay: Retinal thickness of STZ-induced diabetic rats, long-term administration; type: in vivo, rat; conditions: 25 mg/kg/day oral, 4 weeks
From the text: Test compound: […] Positive control: Darapladib, dissolved in ultrapure water. […] All SD rats were preconditioned for 3-5 days. […] The diabetic model was established when the blood glucose of the rats was more than 10 mmol/L. […] The rats were administrated once a day. […] The eyeballs of the rats were removed, frozen and sectioned and the thickness of each slice was 8 μm. The slice was stained with conventional hematoxylin/eosin and photographed with a 400-fold optical microscope (Eclipse 80i, Nikon). The thickness of the retina was analyzed using the software Image-Pro plus 6.0. Five points were selected in each photo. Statistical analysis was performed with the EXCEL 2007 software. […] The experiment results were evaluated by Student T test.

[5] = test system: spontaneous type 2 diabetes ZDF rats; assay: Long-term administration in spontaneous type 2 diabetes ZDF rats (blood glucose and other biochemical indexes); type: in vivo, rat
From the text: Positive control: metformin, produced by China-US Shanghai Squibb Pharmaceutical Co., Ltd.; dissolved in ultra-pure water.
Varieties: ZDF rats, ZL rats; Grade: SPF grade; Age: 56-62 days; Gender: Male; Source: Beijing Weitong Lihua Experimental Animal Co., Ltd.
The kits for total cholesterol (TC), triglyceride (TG), high density lipoprotein cholesterol (HDL-C), low density lipoprotein cholesterol (LDL-C), blood glucose (GLU), aspartate transferase (AST), alanine aminotransferase (ALT), alkaline phosphatase (ALP), urea (BUN), creatinine (CREA) and the like were purchased from Shanghai Shenneng Desai Diagnostic Technology Co., Ltd. The reagents for glycosylated hemoglobin (HbAlc) assay was purchased from Trinity Biotech Corporation. Insulin ELISA Assay Kit was purchased from BertinPharma Corporation. Urine microalbumin (mALB) and other ELISA kits were purchased from Nanjing Jiancheng Bioengineering Institute.
Two ZDF rat groups were orally administered with the compound of example 11 and metformin, respectively. […] The dose of metformin was 300 mg/kg/day. Both were administered for a period of 6 weeks.
Thirty male ZDF rats (56˜62 days old) were fed with Purina #5008 feed (purchased from Nongbiao Purina Feed Co., Ltd.) and the other 6 ZL rats were fed with normal diet as normal control. After fed for 2 weeks, the empty body weights of the fasting rats (fasting for 10 h, free to drink water) were weighed. 0.3 mL blood was collected through tail vein and placed in EDTA anticoagulant tube for the determination of glycosylated hemoglobin (HbAlc). Another 0.5 mL blood was collected and centrifugated at 3000 rpm for 10 min to separate serum which then was determined by automatic biochemical analyzer Model 7020. The serum was separated and then blood glucose and blood lipid (GLU, TC, TG) and hepatorenal function (ALT, AST, ALP, BUN, CREA) were determined. The ZDF rats with blood glucose far from the mean value or having other abnormal indexes were removed and 18 ZDF rats with GLU close to the mean value were selected.
Rats in each group were given the corresponding drug or solvent by gavage through oral once a day in the morning for 6 continuous weeks. Another 6 ZL rats were taken as normal control group.
Every 2 weeks the rats were fasted but allowed free drinking for 10 h, the empty body weight was weighed and 0.5 mL blood was collected through the tail vein to determine the blood glucose levels. The levels of insulin, glycosylated hemoglobin and triglyceride were measured at the 4th week of administration and at the end of the administration. The levels of low density lipoprotein and high density lipoprotein were measured at the 6th week of administration. The urine samples were collected once before the end of the administration and 24 h (11:00 am to 11:00 am the next day) urine samples were collected to detect urinary albumin content in urine.
Statistical analysis was performed with EXCEL 2007 software.

[6] = 10 nM compound, — = no inhibitory activity
[7] = oral 25 then 10 mg/kg/day, 4 weeks after the administration
[8] = oral 25 then 10 mg/kg/day, 6 weeks after the administration

| Compound | inhibitory ratio, % on Lp-PLA2 (rat serum as the source of enzyme) [1, 6] | inhibitory ratio, % on Lp-PLA2 (rat serum as the source of enzyme) ([1]; 100 nM compound) | inhibition at 0.01 µM [2] | inhibition at 0.1 µM [2] | inhibition at 0.01 µM [3] | inhibition at 0.1 µM [3] | inhibition at 1 µM [3] | retinal thickness compared with the model control group [4] | also measured |
| --- | --- | --- | --- | --- | --- | --- | --- | --- | --- |
| Cn1c(N2CCC(F)(F)C2)cc(OCc2cc(F)c(Oc3ccc(Cl)c(C(F)(F)F)c3)c(F)c2)nc1=O [Example 16] | 6.84% | 50.35% | 55.3% | 92.4% | 13.2% | 77.4% | 96.4% |  |  |
| Cn1c(N2CCOCC2)cc(OCc2ccc(Oc3ccc(Cl)c(C(F)(F)F)c3)c(C#N)c2)nc1=O [Example 27, 2-(4-chloro-3-(trifluoromethyl)phenoxy)-5-((1-methyl-6-morpholinyl-2-oxo-1,2-dihydropyrimidin-4-oxy)methyl)benzonitrile] |  |  |  |  |  |  |  | significantly decreased |  |
| Cn1c(-c2ccccc2)cc(OCc2cc(F)c(Oc3ccc(Cl)c(C(F)(F)F)c3)c(F)c2)nc1=O [Example 19, 4-((4-(4-chloro-3-(trifluoromethyl)phenoxy)-3,5-difluorobenzyl)oxy)-1-methyl-6-phenylpyrimidin-2(1H)-one] | — | 18.06% | 53.6% | 89.7% |  | 59.7% |  |  |  |
| CCn1c(N2CCOCC2)cc(OCc2cc(F)c(Oc3ccc(Cl)c(C(F)(F)F)c3)c(F)c2)nc1=O [Example 34, 4-(4-(4-chloro-3-(trifluoromethyl)phenoxy-3,5-difluorobenzyl)oxy)-1-ethyl-6-morpholinopyrimidin-2(1H)-one] |  |  | 53.9% | 95.6% |  | 54.1% | 95.6% |  |  |
| COc1ccc(-c2cc(OCc3cc(F)c(Oc4ccc(Cl)c(C(F)(F)F)c4)c(F)c3)nc(=O)n2C)cc1 [Example 20, 4-((4-(4-chloro-3-(trifluoromethyl)phenoxy)-3,5-difluorobenzyl)oxy)-6-(4-methoxyphenyl)-1-methylpyrimidin-2(1H)-one] | — | 43.27% | 46.9% | 90.4% |  | 54.2% |  |  |  |
| Cn1c(N2CCOCC2)cc(OCCc2cc(F)c(Oc3ccc(Cl)c(C(F)(F)F)c3)c(F)c2)nc1=O [Example 5, 4-(4-(4-chloro-3-(trifluoromethyl)phenoxy)-3,5-difluorophenethyloxy)-1-methyl-6-morpholinopyrimidin-2(1H)-one] | 18.21% | 73.23% | ~90% | 100% | 49.2% | 93.8% | 97.3% |  |  |
| Cn1c(N2CCOCC2)cc(OCc2cc(F)c(Oc3ccnc(C(F)(F)F)c3)c(F)c2)nc1=O [Example 29] |  |  |  |  | 22.6% | 83.5% | 97.1% |  |  |
| CN(C)c1cc(OCc2cc(F)c(Oc3ccc(Cl)c(C(F)(F)F)c3)c(F)c2)nc(=O)n1C [Example 11] |  |  |  |  |  |  |  | significantly decreased | blood glucose level compared with the model control group ([5]; oral 25 mg/kg/day first 4 days then 10 mg/kg/day, 2 weeks, 4 weeks and 6 weeks after administration): significantly decreased; insulin level compared with the model control group [5, 7]: significantly increased; triglyceride level compared with the model control group [5, 7]: significantly decreased; glycosylated hemoglobin levels compared to the model control group ([5]; oral 25 then 10 mg/kg/day, 4 weeks and 6 weeks after the administration): significantly reduced; insulin level compared with the model control group ([5]; oral 25 then 10 mg/kg/day, 6 weeks): remarkably increased; high-density lipoprotein level compared with the model control group [5, 8]: no significant change; level of low-density lipoprotein compared with the model control group [5, 8]: significantly reduced; urinary albumin levels in the urine compared with the model control group ([5]; oral 25 then 10 mg/kg/day, 24 h urine, 6 weeks after the administration): significantly reduced |
| Cn1c(N2CCOCC2)cc(OCc2cc(F)c(Oc3ccc(C(F)(F)F)nc3)c(F)c2)nc1=O [Example 26] |  |  |  |  |  | 57.3% | 93.5% |  |  |
| CCN(CC)CCN(Cc1ccc(-c2ccc(C(F)(F)F)cc2)cc1)C(=O)Cn1c(SCc2ccc(F)cc2)nc(=O)c2c1CCC2 [darapladib, reference compound] |  |  |  |  |  |  |  | significantly decreased |  |
